Where “and” joins values, the source holds several entries; their conditions need not be identical. Identical values can stand only once.
Key:
[1] = molecular target: T1, recombinant His-HSL (hormone-sensitive lipase) (Rattus norvegicus, UniProt P15304); assay: Assay for potency of inhibition on HSL activity (neutral cholesteryl ester hydrolase activity, cholesteryl [1-14C]oleate), Example 1; assay type: biochemical; settings: for % inhibition of HSL: in the presence of DTT (1 mM), inhibitor range 0-2.4 mg/mL (FIG. 1, Table 1); for HSL Activity (DPM) (average): HSL + DTT (1 mM), control without inhibitor 1585.64 DPM
T1 construct: cloning full-length rat HSL cDNA into the SmaI site of pAcHLT-A; His6 (N); made in house; host or cells: Sf21 insect cells (baculovirus, BaculoGold)
T1 sequence (P15304 1-768 isoform P15304-2): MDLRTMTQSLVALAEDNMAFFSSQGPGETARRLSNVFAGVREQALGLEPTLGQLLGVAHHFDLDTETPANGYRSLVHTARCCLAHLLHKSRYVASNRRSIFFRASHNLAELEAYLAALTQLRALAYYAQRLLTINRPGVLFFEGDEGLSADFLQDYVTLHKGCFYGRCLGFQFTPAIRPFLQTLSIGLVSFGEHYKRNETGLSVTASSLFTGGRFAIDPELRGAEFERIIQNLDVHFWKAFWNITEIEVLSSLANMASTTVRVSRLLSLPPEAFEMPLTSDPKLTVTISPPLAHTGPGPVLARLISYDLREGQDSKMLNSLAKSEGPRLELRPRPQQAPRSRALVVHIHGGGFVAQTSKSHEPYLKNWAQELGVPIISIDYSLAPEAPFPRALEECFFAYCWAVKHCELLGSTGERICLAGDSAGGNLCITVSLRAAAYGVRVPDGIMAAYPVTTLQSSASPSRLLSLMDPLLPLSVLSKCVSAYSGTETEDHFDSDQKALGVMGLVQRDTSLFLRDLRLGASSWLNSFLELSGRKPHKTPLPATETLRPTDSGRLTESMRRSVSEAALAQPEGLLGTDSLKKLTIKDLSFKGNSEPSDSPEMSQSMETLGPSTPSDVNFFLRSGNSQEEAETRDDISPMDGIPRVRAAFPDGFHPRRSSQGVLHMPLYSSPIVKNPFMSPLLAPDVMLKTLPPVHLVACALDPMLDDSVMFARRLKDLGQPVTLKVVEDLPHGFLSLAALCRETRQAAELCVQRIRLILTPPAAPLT
Description: Production of Recombinant HSL: Recombinant His-HSL was generated by cloning full-length rat HSL cDNA into the SmaI site of pAcHLT-A containing a His6 tag. pAcHLT-A-HSL (5 μg) was co-transfected into Sf21 cells with 0.5 μg of BaculoGold™ DNA using the transfection kit from the manufacturer. The titer of the recombinant virus was determined using an end point dilution assay, and the virus was re-amplified to a final titer of 1.5×10^7 pfu/ml. To produce recombinant proteins, Sf21 cells were grown in 150 mm Petri dishes and each 2×10^7 cells were infected with 100 μl of the high titer recombinant virus; cells were harvested three days after infection. After harvesting and cell extraction, His-HSL was purified on a Ni-agarose column.
Preparation of Substrate for Neutral Cholesteryl Ester Hydrolase Activity Assay: HSL activity was determined as neutral cholesteryl ester hydrolase activity using a cholesteryl[1-14C]oleate emulsion for measurement of cellular activity, as described previously. Substrate for the cholesteryl ester assay was prepared by adding 1.25 μCi cholesteryl [1-14C]oleate (purified by thin-layer chromatography), 0.043 mmol phosphatidylcholine, and 0.011 mmol cholesteryl oleate into 2.5 mL of 100 mM potassium phosphate buffer (pH 7.0) containing 5 mM sodium taurocholate. The substrate solution was vortexed and then sonicated for 3 hours with a Branson Sonifier/Cell Disruptor model W-350 on an output setting of 5.0 (50%). The substrate was centrifuged at 3000 rpm for 15 min to remove metallic fragments released by the probe and stored under nitrogen at 4° C. for up to one week.
Preparation of Inhibitor Stock Solution: Inhibitors (fraction # O-4355, O-4350, O-4361, O-4456, O-4457) were obtained from olives, olive oil, roots, bark and leaves from olea europeae species as previously described (Paiva-Martins et al., J. Agric. Food Chem., 49:4214-4219, 2001) and dissolved in 200 μL DMSO with 800 μL distilled water at a concentration of 10 mg/ml. This was regarded as stock solution. 0-60 μL of the stock solution were added to the HSL assay to achieve a final concentration of 0-2.4 mg/ml of the inhibitors. The same volume of DMSO without inhibitors was performed as a control.
Assay for Potency of Inhibition on HSL Activity by the Inhibitors: Aliquots of recombinant HSL protein and various concentrations of inhibitors (0-2.4 mg/mL final concentration) were mixed and the volume adjusted to 100 μL and mixed with 140 μL 0.05% bovine serum albumin in 100 mM potassium phosphate, pH 7.0. After the addition of 10 μL of substrate (100 μM final concentration), the assay was carried out at 37° C. for 60 min. The reaction was stopped by the addition of chloroform:methanol:heptane (250:230:180). After the addition of borate/carbonate buffer (0.1 M, pH, 10.5), the tubes were vortexed and centrifuged, and aliquots of the upper phase were taken for liquid scintillation counting in a Beckman scintillation counter.

COX-2 = molecular target: T2, COX-2 (Homo sapiens, UniProt P35354); settings: Smith et al., Organic Letters, 7:5075-5078, 2005; cited from earlier work
T2 sequence (P35354 18-604): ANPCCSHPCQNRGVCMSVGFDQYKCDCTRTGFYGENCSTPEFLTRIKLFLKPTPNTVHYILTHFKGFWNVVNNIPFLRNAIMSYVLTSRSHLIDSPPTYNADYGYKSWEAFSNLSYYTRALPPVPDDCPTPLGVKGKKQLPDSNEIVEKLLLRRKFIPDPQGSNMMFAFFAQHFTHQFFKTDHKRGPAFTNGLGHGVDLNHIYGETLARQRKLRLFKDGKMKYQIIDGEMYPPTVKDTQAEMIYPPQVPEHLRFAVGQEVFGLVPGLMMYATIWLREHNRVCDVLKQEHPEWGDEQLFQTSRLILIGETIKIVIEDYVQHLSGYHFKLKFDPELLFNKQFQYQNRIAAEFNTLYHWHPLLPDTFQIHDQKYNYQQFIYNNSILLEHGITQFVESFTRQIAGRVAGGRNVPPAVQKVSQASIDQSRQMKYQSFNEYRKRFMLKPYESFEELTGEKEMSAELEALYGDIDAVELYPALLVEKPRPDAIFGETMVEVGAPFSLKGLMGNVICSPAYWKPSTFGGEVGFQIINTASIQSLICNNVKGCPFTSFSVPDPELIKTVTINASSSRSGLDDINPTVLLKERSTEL

Compound	% inhibition of HSL [1]	HSL Activity (DPM) (average) ([1]; inhibitor 0.4 mg/mL)	HSL Activity (DPM) (average) ([1]; inhibitor 0.8 mg/mL)	HSL Activity (DPM) (average) ([1]; inhibitor 1.2 mg/mL)	HSL Activity (DPM) (average) ([1]; inhibitor 1.6 mg/mL)	HSL Activity (DPM) (average) ([1]; inhibitor 2.0 mg/mL)	HSL Activity (DPM) (average) ([1]; inhibitor 2.4 mg/mL)	anti-COX-2 activity (COX-2)
CC=C(C=O)C(CC=O)CC(=O)OCCc1ccc(O)c(O)c1 (stereo not drawn) [O-4457, 3,4-dihydroxyphenylelenolic acid dialdehyde]	97% and 97.95%	214.85	87.105	48.025	49.885	39.545	32.495	–
C/C=C(/C=O)[C@@H](CC=O)CC(=O)OCCc1ccc(O)cc1 [O-4456, para-hydroxyphenylelenolic acid dialdehyde]	98% and 98.42%	123.5	52.6035	51.145	88.595	49.56	25.035	having anti-COX-2 activity

— patent US20070299129A1, “Compounds and derivatives for the treatment of medical conditions by modulating hormone-sensitive lipase activity” (DEVIRIS INC., priority 2006, published 2007)
